Experimental data from patent publication US12447137B2, “Composition for prevention, amelioration, or treatment of cancer” (EWHA UNIVERSITY—INDUSTRY COLLABORATION FOUNDATION, priority 2019, dated 2025).

Columns and labels:
4T1 cell line = assay: Cell viability assay (WST-1); type: cell-based; conditions: Mus musculus; 4T1, 10 μM, 24 hours; FIG. 3A; read-out: cancer cell viability inhibited
Method: (§1) [4-1-1] The breast cancer cell line of Experimental Method 1 was treated with 5-aminoimidazole-4-carboxamide ribonucleotide (AICAR) (which is not the compound of Production Example 6) or the compound of Production Example 6 at a concentration of 0 to 30 μM, and then cultured for 24 hours, 48 hours and 72 hours. Thereafter, the cultured cells were treated with WST-1 reagent, and then the absorbance at a wavelength of 450 nm was measured. Here, the WST-1 reagent allows the cell viability to be measured by changing the color of the culture medium depending on the level of the mitochondrial dehydrogenase present in the cell.
(§2) [4-1-2] The breast cancer cell line 4T1, BT549 or MDA-MB-231 of Experimental Method 1 was treated with each of the compound of Production Example 6 and 13 compounds, including the compounds of Production Examples 1 to 5 and 8 to 15 having a similar structure (YE-01, 02, 03, 04, 05, 08, 09, 10, 11, 12, 13, 14 and 15), at a concentration of 0 to 50 μM, and then cultured for 24 hours. Each of three types of gastric cancer cell lines, brain cancer cell lines and pancreatic cancer cell lines was treated with the compound of Production Example 6 or the compound of Production Example 8 having a similar structure at a concentration of 0 to 50 μM, and then cultured for 24 hours. Thereafter, the cultured cells were treated with WST-1 reagent according to the manufacturer's instruction, and after a certain time, the absorbance at a wavelength of 450 nm was measured. Here, the WST-1 reagent allows the cell viability to be measured by changing the color of the culture medium depending on the level of the mitochondrial dehydrogenase present in the cell.

BT549 cell line = assay: Cell viability assay (WST-1); type: cell-based; conditions: Homo sapiens, BT-549; BT549, 10 μM, 24 hours; FIG. 3A; read-out: cancer cell viability inhibited
Method: as §1, §2

MDA-MB-231 cell line = assay: Cell viability assay (WST-1); type: cell-based; conditions: Homo sapiens; MDA-MB-231, 10 μM, 24 hours; FIG. 3A; read-out: cancer cell viability inhibited
Method: as §1, §2

p-AMPK (Thr172) [1] = assay: AMPK activation by p-AMPK (Thr172) Western blot in 4T1 cells; type: cell-based, mouse; conditions: 4T1, 10 μM, 24 hours; FIG. 3B
Method: (§3) [3-1] The breast cancer cell line of Experimental Method 1 above was treated with the compound of Production Example 6 at a concentration of 0 to 30 μM, and then cultured for 24 hours. Thereafter, the cells were harvested and lysed in RIPA buffer, and the protein was electrophoresed by SDS-PAGE, and then the expression level of the protein was analyzed using antibodies specific for AMPK and phospho-AMPK (Thr172). GAPDH or β-actin was used as a loading control for protein quantification.
(§4) [3-2] The three breast cancer cell lines (4T1, BT549, and MDA-MB-231) of Experimental Method 1 were treated with each of the compound of Production Example 6 and 13 compounds, including the compounds of Production Examples 1 to 5 and 8 to 15 having a similar structure (YE-01, 02, 03, 04, 05, 08, 09, 10, 11, 12, 13, 14 and 15), at a concentration of 10 μM, and then cultured for 24 hours. In addition, each of two types of gastric cancer cell lines, brain cancer cell lines and pancreatic cancer cell lines was treated with the compound of Production Example 6 or the compound of Production Example 8 having a similar structure at a concentration of 10 μM and then cultured for 12 hours. Thereafter, the cells were harvested and lysed in RIPA buffer, and the protein was electrophoresed by SDS-PAGE, and then the expression level of the protein was analyzed using antibodies specific for AMPK and phospho-AMPK (Thr172). GAPDH or β-actin was used as a loading control for protein quantification.

p-AMPK (Thr172) [2] = assay: AMPK activation by p-AMPK (Thr172) Western blot in BT549 cells; type: cell-based, human; conditions: BT549, 10 μM, 24 hours; FIG. 3B
Method: as §3
as §4, with “In addition, each of two types of gastric cancer cell lines, brain cancer cell lines and pancreatic cancer cell lines was treated with the compound of Production Example 6 or the compound of Production Example 8 having a similar structure at a concentration of 10 μM and then cultured for 12 hours.” left out

p-AMPK (Thr172) [3] = assay: AMPK activation by p-AMPK (Thr172) Western blot in MDA-MB-231 cells; type: cell-based, human; conditions: MDA-MB-231, 10 μM, 24 hours; FIG. 3B
Method: as §3, §4

p-AMPK (Thr172) [4] = assay: AMPK activation by p-AMPK (Thr172) Western blot in gastric cancer cell lines; type: cell-based, human; conditions: 10 μM, 12 hours, compared to untreated group
Method: as §4

p-AMPK (Thr172) [5] = assay: AMPK activation by p-AMPK (Thr172) Western blot in brain cancer cell lines; type: cell-based, human; conditions: 10 μM, 12 hours, compared to untreated group
Method: as §4

p-AMPK (Thr172) [6] = assay: AMPK activation by p-AMPK (Thr172) Western blot in pancreatic cancer cell lines; type: cell-based, human; conditions: 10 μM, 12 hours, compared to untreated group
Method: as §4

| SMILES | cytotoxicity at 10 µM (4T1 cell line) [%] | cytotoxicity at 10 µM (BT549 cell line) [%] | cytotoxicity at 10 µM (MDA-MB-231 cell line) [%] | p-AMPK level (p-AMPK (Thr172) [1]) | p-AMPK level (p-AMPK (Thr172) [2]) | p-AMPK level (p-AMPK (Thr172) [3]) | expression of p-AMPK (p-AMPK (Thr172) [4]) | expression of p-AMPK (p-AMPK (Thr172) [5]) | expression of p-AMPK (p-AMPK (Thr172) [6]) |
| --- | --- | --- | --- | --- | --- | --- | --- | --- | --- |
| COc1ccc(OC)c(/C=C/C(=O)c2cccc(NS(=O)(=O)c3ccc(Cl)cc3)c2)c1 [Production Example 8, (E)-4-chloro-N-(3-(3-(2,5-dimethoxyphenyl)acryloyl)phenyl)benzenesulfonamide] | ≥ 50 | ≥ 50 | ≥ 50 | effectively increased | effectively increased | effectively increased | increased | increased | increased |
| NC(=O)c1ncn([C@@H]2O[C@H](COP(=O)(O)O)[C@@H](O)[C@H]2O)c1N [AICAR, 5-aminoimidazole-4-carboxamide ribonucleotide, reference compound] |  |  |  |  |  |  | insignificant effect | insignificant effect | insignificant effect |
